Like-named read-outs stand apart in the source and are kept apart here. No end group written: not given here.
Target: T1, GPR103 C327^7.48A (Homo sapiens, UniProt Q96P65, C327A)
T1 construct: we used human full-length QRFPR-encoding plasmids; expressed in transfected cells; host or cells: HEK293 cells (HEK293A in the flow cytometry section), pCAGGS vector
T1 sequence (Q96P65 1-431 C327A): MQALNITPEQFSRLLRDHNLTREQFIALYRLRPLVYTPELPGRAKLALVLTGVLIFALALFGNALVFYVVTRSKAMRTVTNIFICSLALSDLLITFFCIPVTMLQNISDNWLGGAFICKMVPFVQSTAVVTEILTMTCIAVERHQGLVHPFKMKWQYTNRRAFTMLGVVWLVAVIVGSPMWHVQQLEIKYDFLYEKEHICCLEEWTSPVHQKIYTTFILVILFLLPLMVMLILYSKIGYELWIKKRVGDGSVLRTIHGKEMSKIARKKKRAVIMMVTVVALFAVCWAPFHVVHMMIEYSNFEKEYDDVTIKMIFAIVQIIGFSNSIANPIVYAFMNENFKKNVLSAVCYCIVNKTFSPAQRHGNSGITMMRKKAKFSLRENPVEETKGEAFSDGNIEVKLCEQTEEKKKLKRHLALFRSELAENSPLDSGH
Assay: TGFα shedding assay; Exp. level WT (1:5)
Format: cell-based
Description: For the TGFα shedding assay and the flow cytometry analysis, we used human full-length QRFPR-encoding plasmids. Specifically, GPR103 was N-terminally modified with an HA signal sequence followed by a FLAG epitope and then a flexible linker ([…]; the FLAG epitope is underlined) and inserted into the pCAGGS vector. Plasmid encoding GPR103 mutants were generated using Quickchange Site-Directed Mutagensis kit (Agilent).
The TGFα shedding assay was performed as described previously with minor modifications. Plasmid transfection was performed in a 6-well plate with a mixture of 500 ng (per well in a 6-well plate) AP-TGFα-encoding plasmid and 200 ng GPR103-encoding plasmid. After 1-day culture, the transfected cells were harvested by trypsinization, pelleted by centrifugation at 190 × g for 5 min, and washed once with 5 mM HEPES (pH 7.4)-containing Hank’s Balanced Salt Solution (HBSS). After centrifugation, the cells were resuspended in 8 mL of the HEPES-containing HBSS. The cell suspension was seeded in a 96-well culture plate (cell plate) at a volume of 90 μL (per well hereafter) and incubated in a 37 °C incubator with 5% CO2 for 30 min. […] After spinning the cell plates at 190 × g for 2 min, 80 μL of conditioned media was transferred to an empty 96-well plate (conditioned media (CM) plate). Then, 80 μL of AP reaction solution (10 mM p-nitrophenylphosphate (p-NPP), 120 mM Tris-HCl (pH 9.5), 40 mM NaCl, and 10 mM MgCl2) was dispensed into the cell plates and the CM plates. Absorbance at 405 nm of the plates was measured using a microplate reader (SpectraMax 340 PC384, Molecular Devices) before and after 1-h incubation at room temperature. Ligand-induced AP-TGFα release was calculated by subtracting spontaneous AP-TGFα release signal from ligand-induced AP-TGFα release signal. The AP-TGFα release signals were fitted to a four-parameter sigmoidal concentration–response curve, using the Prism 10 software (GraphPad Prism). For each replicate experiment, the pEC50 parameter (negative logarithmic values of EC50 values) of the individual GPR103 mutants were normalized to that of the wild-type GPR103 performed in parallel, and resulting ∆pEC50 values were used to denote ligand response activity of the mutants. […]
Exp. le vel: WT (1:5 0)Exp. le vel: WT (1:5 0)Exp. le vel: WT (1:5 0)Exp. le vel: WT (1:2 0)Exp. le vel: WT (1:2 0)Exp. le vel: WT (1:1 0) […]
L1 4N - t e r mA F2 5N - t e r mA I 2 6N - t e r mA Y 2 9N - t e r mA C 9 82 .5 7A T10 22 .6 1A Exp . l eve l: WT (1 :5)Exp . l evel : >WT (1 :1)Exp. le vel: WT (1:2 0)Exp. le vel: WT (1:2 0)Exp. le vel: WT (1:5 0)Exp . l eve l: WT (1 :1) […]
Exp. le vel: WT (1:1 0)Exp. le vel: WT (1:2 0) C 1 1 83 .2 5AExp. le vel: WT (1:5 0)Exp. le vel: WT (1:5 0)Exp. le vel: WT (1:2 0)Exp . l eve l: WT (1 :5) […]
Exp. le vel: WT (1:5 0)Exp. le vel: WT (1:1 0)Exp. le vel: WT (1:5 0) E203ECL2AExp . l evel : >WT (1 :1)Exp. le vel: WT (1:5 0)Exp. le vel: WT (1:5 0) […]
Exp . l eve l: WT (1 :1) F28Exp. le vel: WT (1:5 0) C 2 8 56 .4 7AExp. le vel: WT (1:2 0) WExp. le vel: WT (1:2 0) F28Exp. le vel: WT (1:5 0)Exp . l evel : >WT (1 :1) […]
Exp. le vel: WT (1:5 0)Exp. le vel: WT (1:5 0) C 3 2 77 .4 8AExp . l eve l: WT (1 :5)Exp . l evel : >WT (1 :1)Exp . l evel : >WT (1 :1) […]
Suppl eme nt ary Figure 1 | Mutational analysis of GPR103. […]
mutants. Data are presented as mean values ± SEM, normally n=3-5; dots), each performed in triplicate. b-d Cell-surface expression (b) and QRFP26-in-duced activation of GPR103 (c, d) were analyzed by the flow cytometry and the TGFα shedding assay, respectively. From the concentration–response curves (a), Emax (c) and ΔpEC50 (d) values relative to the wild type were calculated. Colors in the mutant bars indicate an expression level matching to that of titrated wild type. Statistical analyses were performed using the ordinary one-way ANOVA followed by Dunnett tests with the expression-matched […]

- Emax (Exp. #1): 95.99 % WT
- Emax (Exp. #2): 96.35 % WT
- Emax (Exp. #3): 104.77 % WT
- Emax (mean, read-out: Emax): 99%
- EC50 (n = 3): 4.27 nM
- Emax (n = 3, read-out: Emax): 104 ± 2.3%
Substance: TSGPLGNLAEELNGYSRKKGGFSFRF-NH2 [QRFP26]

From article PMC11187126, “Structure and dynamics of the pyroglutamylated RF-amide peptide QRFP receptor GPR103” (Nature Communications, 2024)
